# Patent US3985888A, “Methods of inducing sedation using certain spiroalkanone-imides” (Richardson-Merrell Inc., priority 1971, dated 1976)
# Entries after “also recorded” stand apart in the source; their conditions may differ. Like-named read-outs stand apart in the source and are kept apart here.
# Columns and labels:
# [1] = acute LD50; conditions: mouse, in vivo, mice
# [2] = sedative / central nervous system depressant properties; assay type: in vivo; conditions: in words
# [3] = system: mice; test: prolongation of loss of the righting reflex produced by barbital or hexobarbital; assay type: in vivo; conditions: i.p., appropriate doses of barbital or hexobarbital
# [4] = system: mice; test: spontaneous locomotor activity in the photocell chamber; assay type: in vivo; conditions: for ED50: Mus musculus, read-out: Spontaneous Locomotor Activity: Depressant Dose 50% (dose reducing activity to 50 percent of control)
# [5] = motor coordination, rotorod method; assay type: in vivo; conditions: mouse, mice; for TD50: read-out: Loss of Motor Coordination, ED50; for NOAEL: read-out: dose until which there is no significant impairment of motor coordination (rotorod)
# Procedure: There is no significant impairment of motor coordination as determined with the rotorod method (Kinnard, W. J. and Carr, C. J., J. Pharmacol. Exptl. Therap., 121: 354 (1957)), on the other hand, until doses of 900 mg/kg, p.o. or 500-900 mg/kg i.p. have been administered.
# [6] = system: mice; test: protection against maximal electroshock; assay type: in vivo; conditions: Mus musculus, read-out: Anticonvulsant Protective Dose, 50% (Maximum Electroshock)
compound,measurement,setting,value
"O=C1CCC2(CCC(=O)c3ccccc32)C(=O)N1 (centres unmarked) [Example 1, 2,3-dihydrospiro-[naphthalene-1(4H),3'-piperidine]-2',4,6'-trione]",LD50,"[1]; ip, intraperitoneally",> 2000 mg/kg
same,LD50,"[1]; po, orally",> 2000 mg/kg
same,central nervous system depressant properties,[2],central nervous system depressant properties
same,dose that significantly prolongs loss of the righting reflex produced by barbital or hexobarbital,[3],about 300 mg/kg
same,ED50,[4]; ip,50 to 60 mg/kg
same,ED50,[4]; po,150 mg/kg
same,Spontaneous Locomotor Activity: Depressant Dose 50% (dose reducing activity to 50 percent of control),[4]; i.p.,50 to 60 mg/kg
same,TD50,"[5]; ip, i.p.",500 to 900 mg/kg
same,NOAEL,"[5]; ip, i.p.",500 to 900 mg/kg
same,TD50,[5]; oral,900 mg/kg
same,NOAEL,"[5]; po, p.o.",≥ 900 mg/kg
same,ED50,[6]; ip,160 to 170 mg/kg
same,ED50,[6]; po,120 mg/kg
"CCN1C(=O)CCC2(CCC(=O)c3ccccc32)C1=O (centres unmarked) [Example 6, 1'-ethyl-2,3-dihydrospiro-[naphthalene-1(4H),3'-piperidine]-2',4,6'-trione]",sedative properties,[2],has sedative properties
"COc1ccc2c(c1)C(=O)CCC21CCC(=O)N(C)C1=O (centres unmarked) [Example 8, 2,3-dihydro-6-methoxy-1'-methylspiro[naphthalene-1(4H),3'-piperidine]-2',4,6'-trione]",sedative properties,[2],has sedative properties
"Cc1ccc2c(c1)C(=O)CCC21CCC(=O)NC1=O (centres unmarked) [Example 9, 2,3-dihydro-6-methylspiro[naphthalene-1(4H),3'-piperidine]-2',4,6'-trione]",sedative properties,[2],has sedative properties
"Cc1ccc2c(c1)C(=O)CCC21CCC(=O)N(C)C1=O (centres unmarked) [Example 10, 1',6-dimethyl-2,3-dihydrospiro-[naphthalene-1(4H),3'-piperidine]-2',4,6'-trione]",sedative properties,[2],has sedative properties
"COc1cc2c(cc1OC)C1(CCC(=O)NC1=O)CCC2=O (centres unmarked) [Example 11, 2,3-dihydro-6,7-dimethoxyspiro-[naphthalene-1(4H),3'-piperidine]-2',4,6'-trione]",sedative properties,[2],has sedative properties
"COc1cc2c(cc1OC)C1(CCC2=O)CCC(=O)N(C)C1=O (centres unmarked) [Example 12, 2,3-dihydro-6,7-dimethoxy-1'-methylspiro-[naphthalene-1(4H),3'-piperidine]-2',4,6'-trione]",sedative properties,[2],has sedative properties
"O=C1CCC2(CC(=O)c3ccccc32)C(=O)N1 (centres unmarked) [Example 13, spiro-[indane-1,3'-piperidine]-2,3,6'-trione]",sedative properties,[2],has sedative properties
"O=C1CC2(CCC(=O)c3ccccc32)C(=O)N1 (centres unmarked) [Example 14, 2,3-dihydrospiro[naphthalene-1(4H),3'-pyrrolidine]-2',4,5'-trione]",sedative properties,[2],has sedative properties
"Cc1cccc2c1C1(CCC(=O)NC1=O)CCC2=O (centres unmarked) [Example 15, 2,3-dihydro-8-methylspiro-[naphthalene-1(4H),3'-piperidine]-2',4,6' -trione]",sedative properties,[2],has sedative properties
"Cc1cccc2c1C1(CCC2=O)CCC(=O)N(C)C1=O (centres unmarked) [Example 16, 2,3-dihydro-1',8-dimethylspiro-[naphthalene-1(4H),3'-piperidine]-2',4,6'-trione]",sedative properties,[2],has sedative properties
"O=C1CCC2(CCC(=O)c3cc(Cl)ccc32)C(=O)N1 (centres unmarked) [Example 17, 6-chloro-2,3-dihydrospiro[naphthalene-1(4H),3'-piperidine]-2',4,6'-trione]",sedative properties,[2],has sedative properties
"CN1C(=O)CCC2(CCC(=O)c3cc(Cl)ccc32)C1=O (centres unmarked) [Example 18, 6-chloro-2,3-dihydro-1'-methylspiro[naphthalene-1(4H),3'-piperidine]-2',4,6'-trione]",sedative properties,[2],has sedative properties; also recorded: particularly useful as a sedative
same,ED50,[4]; po,13 mg/kg
same,activity compared with the known compound (Example 1),"[4]; in words, as shown in the table",substantially greater activity
same,TD50,[5]; oral,285 mg/kg
"O=C1CCC2(CCC(=O)c3cc([N+](=O)[O-])ccc32)C(=O)N1 (centres unmarked) [Example 19, 2,3-dihydro-6-nitrospiro-[naphthalene-1(4H),3'-piperidine]-2',4,6'-trione]",sedative properties,[2],has sedative properties
